Source: patent US20050192314A1, “Urea derivatives as C-kit modulators” (Ambit Biosciences Corporation, priority 2003, published 2005)

biological target: T1, KIT(DKIN) (Homo sapiens, UniProt P10721); experiment: Binding constant (Kd) measurement, phage-displayed kinase competition binding assay: KIT(DKIN)
T1 construct: KIT(DKIN); made in house
Source text: The term “ND” represents non-determined values.

T1 sequence (P10721 589-937 limits assumed): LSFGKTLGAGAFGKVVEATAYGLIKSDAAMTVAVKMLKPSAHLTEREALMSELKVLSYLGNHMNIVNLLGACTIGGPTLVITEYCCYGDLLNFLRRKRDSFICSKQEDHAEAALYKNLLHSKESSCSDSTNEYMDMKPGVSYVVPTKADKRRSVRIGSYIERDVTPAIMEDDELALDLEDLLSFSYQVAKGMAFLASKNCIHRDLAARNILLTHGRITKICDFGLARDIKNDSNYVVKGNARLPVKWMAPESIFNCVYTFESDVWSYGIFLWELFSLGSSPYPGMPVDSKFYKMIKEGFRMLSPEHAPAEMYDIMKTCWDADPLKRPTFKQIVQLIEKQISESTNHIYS

SMILES | Kd [nM]
CC(C)(CO)c1cc(NC(=O)Nc2ccc(OCc3ccccc3)cc2)on1 [Compound G2] | 100 to 1000
CC(C)(C)c1cc(NC(=O)Nc2ccccc2)no1 [Compound A2] | 100 to 1000
CC(C)(C)c1cc(NC(=O)Nc2ccc(OCCN3CCC(O)CC3)cc2)no1 [Compound G48] | > 10000
CC(C)(C)c1cc(NC(=O)Nc2ccc(Cl)cc2Cl)no1 [Compound A7] | 1000 to 10000
CC(C)(C)c1cc(NC(=O)Nc2ccc(OCCc3ccccc3F)cc2)no1 [Compound G25] | 100 to 1000
CC(C)(C)c1cc(NC(=O)Nc2ccc(OCc3ccccc3Cl)cc2)no1 [Compound G10] | < 100
CC(C)(C)c1cc(NC(=O)Nc2ccc(Cl)cc2)on1 [Compound A32] | 100 to 1000
COc1cccc(CNC(=O)Nc2cc(C(C)(C)C)on2)c1 [Compound B3] | 1000 to 10000
COc1ccc(NC(=O)Nc2cc(C(C)(C)C)on2)cc1 [Compound A29] | 1000 to 10000
CSc1ccc(NC(=O)Nc2cc(C(C)(C)C)on2)cc1 [Compound A37] | 100 to 1000
CC(C)(C)c1cc(NC(=O)Nc2ccc(OCc3ccc(C(=O)c4ccccc4)cc3)cc2)no1 [Compound G9] | 100 to 1000
COC(=O)c1cccc(COc2ccc(NC(=O)Nc3cc(C(C)(C)C)on3)cc2)c1 [Compound G7] | 100 to 1000
Cc1ccc(-n2nc(C(C)(C)C)cc2NC(=O)Nc2ccc(OCCN3CCOC(CO)C3)c3ccccc23)cc1 (stereo not drawn) [Compound G38] | 100 to 1000
CC(C)(C)c1cc(NC(=O)Nc2ccc(OCc3ccc(-c4ccccc4)cc3)cc2)no1 [Compound G56] | 100 to 1000
CC(C)(CO)c1cc(NC(=O)Nc2ccc(Cl)cc2)on1 [Compound A22] | 1000 to 10000
CC(C)(C)c1cc(NC(=O)Nc2ccc(OCc3ccc4nonc4c3)cc2)no1 [Compound G55] | 100 to 1000
CC(C)(C)c1cc(NC(=O)Nc2ccc(OCCc3ccccn3)cc2)no1 [Compound G27] | 100 to 1000
CC(C)(C)c1cc(NC(=O)Nc2ccc(F)cc2)no1 [Compound A47] | 1000 to 10000
CC1CN(CCOc2ccc(NC(=O)Nc3cc(C(C)(C)C)on3)cc2)CC(C)O1 (stereo not drawn) [Compound G42] | 1000 to 10000
CC(C)Oc1ccc(NC(=O)Nc2cc(C(C)(C)C)no2)cc1 [Compound G33] | < 100

The next lines start with the values.

Kd [nM] | SMILES
100 to 1000 | Cn1nc(C(C)(C)C)cc1C(=O)Nc1ccc(NC(=O)Nc2cc(C(C)(C)C)on2)cc1 [Compound N10]
1000 to 10000 | CC(C)(C)c1cc(NC(=O)Nc2ccc(NC(=O)c3c[nH]c(=O)nc3-c3ccncc3)cc2)no1 [Compound N19]
1000 to 10000 | CC(C)(C)c1cc(NC(=O)Nc2ccc(NC(=O)c3cnc4ccccc4n3)cc2)no1 [Compound N149]
< 100 | Cc1ccc(NC(=O)c2ccc(NC(=O)Nc3cc(C(C)(C)C)on3)cc2)cc1 [Compound N84]
1000 to 10000 | CC(C)(C)c1cc(NC(=O)Nc2ccc(NC(=O)C3CCNCC3)cc2)no1 [Compound N150]
1000 to 10000 | CC(C)(C)c1cc(NC(=O)Nc2ccc(NC(=O)c3cc(Cl)nc(Cl)c3)cc2)no1 [Compound N132]
100 to 1000 | CC(C)(C)c1cc(NC(=O)Nc2ccc(NC(=O)c3cccnc3)cc2)no1 [Compound N1]
100 to 1000 | Cn1nc(-c2ccccc2)c2cc(C(=O)Nc3ccc(NC(=O)Nc4cc(C(C)(C)C)on4)cc3)sc21 [Compound N5]
100 to 1000 | Cc1nn(C)c(Cl)c1C(=O)Nc1ccc(NC(=O)Nc2cc(C(C)(C)C)on2)cc1 [Compound N116]
100 to 1000 | CC(C)(C)c1cc(NC(=O)Nc2ccc(C(=O)Nc3ccccc3)cc2)no1 [Compound N90]
100 to 1000 | Cc1sc(NC(=O)Nc2ccc(Cl)cc2)c(C(N)=O)c1C [Compound Z58]
100 to 1000 | CC(C)(C)c1cc(NC(=O)Nc2ccc(NC(=O)c3ccccc3)cc2)no1 [Compound N34]
100 to 1000 | Cn1cc(C(=O)Nc2ccc(NC(=O)Nc3cc(C(C)(C)C)on3)cc2)c2ccccc21 [Compound N119]
100 to 1000 | CC(C)(C)c1cc(NC(=O)Nc2ccc(C(=O)NCCO)cc2)no1 [Compound N87]
100 to 1000 | COC(=O)c1ccc(C(=O)Nc2ccc(NC(=O)Nc3cc(C(C)(C)C)on3)cc2)nc1 [Compound N12]
1000 to 10000 | CC(C)(C)c1cc(NC(=O)Nc2ccc(NC(=O)c3cc(Cl)cn(Cc4ccccc4)c3=O)cc2)no1 [Compound N112]
1000 to 10000 | CC(C)(C)c1cc(NC(=O)Nc2ccc(C(=O)Nc3cccc(C(F)(F)F)c3)cc2)no1 [Compound N154]
< 100 | CC(C)(C)c1cc(NC(=O)Nc2ccc(NC(=O)c3cc([N+](=O)[O-])ccn3)cc2)no1 [Compound N7]
100 to 1000 | CC(C)(C)c1cc(NC(=O)Nc2ccc(NC(=O)c3csc(-c4ccc(Cl)cc4)n3)cc2)no1 [Compound N124]
< 100 | CC(C)(C)c1cc(NC(=O)Nc2ccc(NC(=O)c3cccc(O)n3)cc2)no1 [Compound N131]

Kd [nM] | SMILES
1000 to 10000 | COc1nc(C)cc(C)c1C(=O)Nc1ccc(NC(=O)Nc2cc(C(C)(C)C)on2)cc1 [Compound N22]
100 to 1000 | Cc1ccc(NC(=O)Nc2cc(C(F)(F)F)cc(Cl)n2)cc1 [Compound W1]
1000 to 10000 | COc1ccc(-c2cc(C(=O)Nc3ccc(NC(=O)Nc4cc(C(C)(C)C)on4)cc3)c(C)o2)cc1 [Compound N118]
100 to 1000 | Cc1ncccc1C(=O)Nc1ccc(NC(=O)Nc2cc(C(C)(C)C)on2)cc1 [Compound N145]
100 to 1000 | CC(C)(C)c1cc(NC(=O)Nc2ccc(NC(=O)c3ccc4ncccc4c3)cc2)no1 [Compound N151]
100 to 1000 | CC(C)(C)c1cc(NC(=O)Nc2ccc(NC(=O)c3cnc4ccccc4c3)cc2)no1 [Compound N108]
100 to 1000 | Cc1cccnc1-c1noc(-c2ccc(NC(=O)Nc3cc(C(C)(C)C)on3)cc2)n1 [Compound P4]
100 to 1000 | CC(C)(C)c1cc(NC(=O)Nc2ccc(NC(=O)c3ccncc3)cc2)no1 [Compound N167]
< 100 | CC(C)(C)c1cc(NC(=O)Nc2ccc(NC(=O)c3cnccn3)cc2)no1 [Compound N136]
100 to 1000 | CC(C)(C)c1cc(NC(=O)Nc2ccc(-c3nc(-c4ccc(Cl)cc4)no3)cc2)no1 [Compound P7]
100 to 1000 | CC(C)(C)c1cc(NC(=O)Nc2ccc(NC(=O)c3c(Cl)cccc3Cl)cc2)no1 [Compound N94]
100 to 1000 | CC(C)(C)c1cc(NC(=O)Nc2ccc(C(=O)NCc3ccc4c(c3)OCO4)cc2)no1 [Compound N97]
100 to 1000 | COc1cc(C(=O)Nc2ccc(NC(=O)Nc3cc(C(C)(C)C)on3)cc2)nc2ccccc12 [Compound N137]
> 10000 | Cc1ccc(-n2nc(C(C)(C)C)cc2NC(=O)Nc2cc(C(C)(C)C)on2)cc1 [Compound H11]
100 to 1000 | COc1ccc(N(C)C(=O)Nc2cc(C(C)(C)C)on2)cc1 [Compound J10]
100 to 1000 | Cn1cc(C(=O)Nc2ccc(NC(=O)Nc3cc(C(C)(C)C)on3)cc2)c(C(F)(F)F)n1 [Compound N20]
100 to 1000 | CC(C)(C)c1cc(NC(=O)Nc2ccc(NC(=O)c3nccnc3C(N)=O)cc2)no1 [Compound N138]
1000 to 10000 | Cc1ccc(-c2cc(C(=O)Nc3ccc(NC(=O)Nc4cc(C(C)(C)C)on4)cc3)c(C)o2)cc1 [Compound N120]
100 to 1000 | CCc1ccc(C(=O)Nc2ccc(NC(=O)Nc3cc(C(C)(C)C)on3)cc2)cc1 [Compound N32]
100 to 1000 | CC(C)(C)c1cc(NC(=O)Nc2ccc(NC(=O)Cc3ccc(-c4ccccc4)cc3)cc2)no1 [Compound N38]
